Where two headings read alike, the source gives them in different places.
Legend:
Zymoseptoria tritici = test: Leaf blotch of wheat (SEPTTR), disease control on wheat seedlings; format: in vivo; conditions: high volume application at 100 ppm
Method: Technical grades of materials were dissolved in acetone, which were then mixed with nine volumes of water containing 110 ppm Triton X-100. The fungicide solutions were applied onto wheat seedlings using an automated booth sprayer to run-off. All sprayed plants were allowed to air dry prior to further handling. All fungicides were evaluated using the aforementioned method for their activity vs. all target diseases, unless stated otherwise. Wheat leaf blotch and brown rust activity were also evaluated using track spray applications, in which case the fungicides were formulated as EC formulations, containing 0.1% Trycol 5941 in the spray solutions. Wheat plants (variety Yuma) were grown from seed in a greenhouse in 50% mineral soil/50% soil-less Metro mix until the first leaf was fully emerged, with 7-10 seedlings per pot. These plants were inoculated with an aqueous spore suspension of Zymoseptoria tritici either prior to or after fungicide treatments. After inoculation the plants were kept in 100% relative humidity (one day in a dark dew chamber followed by two to three days in a lighted dew chamber at 20° C.) to permit spores to germinate and infect the leaf. The plants were then transferred to a greenhouse set at 20° C. for disease to develop. When disease symptoms were fully expressed on the 1st leaves of untreated plants, infection levels were assessed on a scale of 0 to 100 percent disease severity. Percent disease control was calculated using the ratio of disease severity on treated plants relative to untreated plants.

Puccinia triticina = test: Wheat brown rust (PUCCRT), disease control on wheat seedlings; format: in vivo; conditions: high volume application at 100 ppm
Method: Technical grades of materials were dissolved in acetone, which were then mixed with nine volumes of water containing 110 ppm Triton X-100. The fungicide solutions were applied onto wheat seedlings using an automated booth sprayer to run-off. All sprayed plants were allowed to air dry prior to further handling. All fungicides were evaluated using the aforementioned method for their activity vs. all target diseases, unless stated otherwise. Wheat leaf blotch and brown rust activity were also evaluated using track spray applications, in which case the fungicides were formulated as EC formulations, containing 0.1% Trycol 5941 in the spray solutions. Wheat plants (variety Yuma) were grown from seed in a greenhouse in 50% mineral soil/50% soil-less Metro mix until the first leaf was fully emerged, with 7-10 seedlings per pot. These plants were inoculated with an aqueous spore suspension of Puccinia triticina either prior to or after fungicide treatments. After inoculation the plants were kept in a dark dew room at 22° C. with 100% relative humidity overnight to permit spores to germinate and infect the leaf. The plants were then transferred to a greenhouse set at 24° C. for disease to develop. Fungicide formulation, application and disease assessment followed the procedures as described in the Example A.

[1] = 24 h, 1 Day Protectant, read-out: SEPTTR disease control, 1DP, HV activity
[2] = 72 h, 3 Day Curative, read-out: SEPTTR disease control, 3DC, HV activity
[3] = 24 h, 1 Day Protectant, read-out: PUCCRT disease control, 1DP, HV activity
[4] = 72 h, 3 Day Curative, read-out: PUCCRT disease control, 3DC, HV activity

Row | SMILES | pest or weed control at 100 ppm (Zymoseptoria tritici; [1]) [%] | pest or weed control at 100 ppm (Zymoseptoria tritici; [2]) [%] | pest or weed control at 100 ppm (Puccinia triticina; [3]) [%] | pest or weed control at 100 ppm (Puccinia triticina; [4]) [%]
1 | CCC(CC)[C@@H](c1ccc(F)cc1C)[C@H](C)OC(=O)[C@H](C)NC(=O)c1nccc(OC)c1O [Compound 125] | > 80 | > 80 | > 80 | < 80
2 | CCC(C)[C@@H](c1ccc(F)cc1C)[C@H](C)OC(=O)[C@H](C)NC(=O)c1nccc(OC)c1O (stereo partly shown) [Compound 126] | > 80 | > 80 | > 80 | < 80
3 | COc1ccnc(C(=O)N[C@@H](C)C(=O)O[C@@H](C)[C@H](c2ccc(F)cc2C)C2CCC2)c1O [Compound 127] | > 80 | < 80 | > 80 | > 80
4 | COc1ccnc(C(=O)N[C@@H](C)C(=O)O[C@H](C)[C@H](c2ccc(F)cc2C)C2CCCC2)c1O [Compound 128] | < 0 | < 80 | < 80 | < 0
5 | COc1ccnc(C(=O)N[C@@H](C)C(=O)O[C@H](C)[C@H](c2ccc(F)cc2C)C2CCCCC2)c1O [Compound 129] | > 80 | < 80 | > 80 | < 0
6 | COc1ccnc(C(=O)N[C@@H](C)C(=O)O[C@H](C)[C@H](c2ccc(F)cc2C)C(C)C)c1O [Compound 130] | < 80 | < 80 | > 80 | < 80
7 | COc1ccnc(C(=O)N[C@@H](C)C(=O)O[C@@H](C)[C@@H](c2ccc(C)cc2C)C(C)C)c1O [Compound 131] | < 80 | < 80 | > 80 | > 80
8 | COc1ccnc(C(=O)N[C@@H](C)C(=O)O[C@@H](C)[C@@H](c2ccc(C)cc2C)C2CCCC2)c1O [Compound 132] | > 80 | < 80 | > 80 | > 80
9 | COc1ccnc(C(=O)N[C@@H](C)C(=O)O[C@@H](C)[C@@H](c2ccc(C)cc2C)C2CCCCC2)c1O [Compound 133] | > 80 | < 80 | > 80 | < 80
10 | CCC(C)[C@H](c1ccc(C)cc1C)[C@H](C)OC(=O)[C@H](C)NC(=O)c1nccc(OC)c1O (stereo partly shown) [Compound 134] | < 80 | < 80 | < 80 | < 80
11 | COc1ccnc(C(=O)N[C@@H](C)C(=O)O[C@@H](C)[C@H](c2ccc(F)cc2)C(C)C)c1O [Compound 135] | < 80 | > 80 | < 80 | > 80
12 | COc1ccnc(C(=S)N[C@@H](C)C(=O)O[C@@H](C)[C@H](c2ccc(F)cc2C)C(C)C)c1O [Compound 136] | > 80 | > 80 | > 80 | > 80
13 | COc1cc(F)ccc1[C@@H](C(C)C)[C@H](C)OC(=O)[C@H](C)NC(=O)c1nccc(OC)c1O [Compound 138] | < 0 | < 0 | > 80 | > 80
14 | COc1cc(F)ccc1[C@@H](C1CCCCC1)[C@H](C)OC(=O)[C@H](C)NC(=O)c1nccc(OC)c1O [Compound 139] | > 80 | < 0 | > 80 | < 80
15 | COc1cc(F)ccc1[C@@H](C1CCCC1)[C@H](C)OC(=O)[C@H](C)NC(=O)c1nccc(OC)c1O [Compound 140] | < 0 | < 80 | > 80 | > 80
16 | CCC(C)[C@H](c1ccc(F)cc1OC)[C@H](C)OC(=O)[C@H](C)NC(=O)c1nccc(OC)c1O (stereo partly shown) [Compound 141] | < 0 | > 80 | < 80 | > 80
